A word on the IC50: it is the point on the concentration scale where inhibition reaches its midpoint.

Like-named read-outs stand apart in the source and are kept apart here.

18 compounds from patent publication US9713615B2, “Tetrahydroisoquinolin-2-yl-(quinazolin-4-yl)methanone compounds” (Rexahn Pharmaceuticals, Inc., priority 2013, dated 2017) can be followed below.

Common to all, as to type: cell-based, Human
In one assay the test system is PANC-1 (pancreas). Nature of the assay: SRB growth inhibition assay, PANC-1. The settings on record: read-out: Inhibition of cell growth (IC50, μM) Panc-1. The source says: (§1) Cancer cells used in this study to determine the effect of tetrahydroisoquinolin-2-yl-(quinazolin-4-yl)methanone compounds were obtained from the following sources: Human OVCAR-3 (ovary), SK-MEL-28 (melanoma), MDA-MB-231 (breast), HeLa (cervix), PC3 (prostate), HepG2 (liver), A549 (lung), Caki-1 (kidney), HCT116 (colon) and PANC-1 (pancreas) from the American Type Culture Collection (ATCC) (Manassas, Va.); U251 (brain) from Riken (Japan); MKN-45 (stomach) from DSMZ (Germany). All cell lines except MDA-MB-231, HCT116, Caki-1 and PANC-1 were grown in RPMI1640 medium (Invitrogen, Carlsbad, Calif.) supplemented with 10% fetal bovine serum (“FBS”), 1 mM sodium pyruvate, 10 mM HEPES and 100 U/ml penicillin and 100 μg/ml streptomycin (“P/S”). MDA-MB-231, HCT116, Caki-1 and PANC-1 cells were maintained in Dulbecco's modified Eagle's medium (“DMEM”, Invitrogen) supplemented with 10% FBS, P/S, 10 mM HEPES and 2 mM L-glutamine. All cells were incubated at 37° C. under humidified 5% CO2.
(§2) The growth inhibition of the tetrahydroisoquinolin-2-yl-(quinazolin-4-yl)methanone compounds against a variety of human tumor cells was evaluated to study the relative importance of particular substituent groups on the compounds. The tetrahydroisoquinolin-2-yl-(quinazolin-4-yl)methanone compounds, prepared as described above, were tested with DMSO as a control.
(§3) The growth inhibition assay of representative tetrahydroisoquinolin-2-yl-(quinazolin-4-yl)methanone derivatives against human tumor cell lines was performed using the Sulforhodamine B (“SRB”) method (Skehan et al., J. National Cancer Institute, 82: 1107-1112 (1990)). Briefly, exponentially growing tumor cells were seeded into a 96-well plate at a density of 2-3×10^3 cells/well and treated with tetrahydroisoquinolin-2-yl-(quinazolin-4-yl)methanone compounds the next day. Triplicate wells were used for each treatment. The cells were incubated with the various compounds for 96 hours at 37° C. in a humidified 5% CO2 atmosphere. After 96-hour incubation, cells were fixed with 10% trichloroacetic acid (“TCA”), incubated for 1 hour at 4° C., and washed 3 times with tap water. Subsequently, cells were stained with 0.4% sulforhodamine B in 1% acetic acid for 30 minutes, washed 4 times with 1% acetic acid, and air-dried again After 5 minutes agitation in 10 mM Tris solution, the absorbance of each well was measured at 530 nm using Benchmark Plus Microplate reader (Bio-Rad Laboratories, Hercules, Calif.).
(§4) To translate the OD530 values into the number of live cells in each well, the OD530 values were compared to those on standard OD530-versus-cell number curves generated for each cell line. The percent survival was calculated using the formula: % Survival=live cell number [test]/live cell number [control]×100
(§5) The IC50 values were calculated by non-linear regression analysis.
(§6) The compounds were screened against at […] including PANC-1, MDA-MB-231, HCT116 and Caki-1, at approximately 1 μM concentration. The inhibition of cell growth (IC50, μM) of some tetrahydroisoquinolin-2-yl-(quinazolin-4-yl)methanone compounds are shown in Table 2.

In the next assay the test system is HCT116 (colon). Kind of assay: SRB growth inhibition assay, HCT116. The note with it: read-out: Inhibition of cell growth (IC50, μM) HCT116.
Source text: as §1, §2, §3, §4, §5, §6

Another assay deals with Caki-1 (kidney). Kind of assay: SRB growth inhibition assay, Caki-1. The note with it: read-out: Inhibition of cell growth (IC50, μM) Caki-1.
Source text: as §1, §2, §3, §4, §5, §6

Another assay deals with MDA-MB-231 (breast). Nature of the assay: SRB growth inhibition assay, MDA-MB-231. The settings on record: read-out: Inhibition of cell growth (IC50, μM) MDA-MB-231.
Source text: as §1, §2, §3, §4, §5, §6

Where [1] appears, read: Homo sapiens, PANC-1, 96 hours incubation.
[2] abbreviates: Homo sapiens, HCT-116, 96 hours incubation.
Setting [3] is: Homo sapiens, CAKI-1, 96 hours incubation.
[4] abbreviates: Homo sapiens, MDA-MB-231, 96 hours incubation.

As to “2-[[2-(3-fluorophenyl)phenyl)quinazolin-4-yl]carbonyl]-5-hydroxy-6-methyl-1,2,3,4-tetrahydroisoquinoline [Compound 46]”, the concentration for half-maximal inhibition (IC50) in the assay with PANC-1 (pancreas) (96 hours incubation) stood at 0.51 µM; in the assay with HCT116 (colon) (96 hours incubation) it was 0.54 µM; in the assay with Caki-1 (kidney) (96 hours incubation) it was 0.52 µM; with MDA-MB-231 (breast) (96 hours incubation), 0.58 µM.
With `COc1ccc2c(c1OC)CCN(C(=O)c1nc(-c3ccc(F)cc3)nc3ccccc13)C2` [Compound 3, 2-[[2-(4-fluorophenyl)quinazolin-4-yl]carbonyl]-5,6-dimethoxy-1,2,3,4-tetrahydroisoquinoline], the IC50 came to 1.45 µM in the assay on PANC-1 (pancreas) (setting [1]), 1.39 µM with HCT116 (colon) (setting [2]), 1.1 µM in the assay with Caki-1 (kidney) (setting [3]) and 1.2 µM with MDA-MB-231 (breast) (setting [4]).
Consider `Cc1ccc2c(c1O)CCN(C(=O)c1nc(-c3ccc(F)cc3)nc3ccccc13)C2` [Compound 5, 2-[[2-(4-fluorophenyl)quinazolin-4-yl]carbonyl]-5-hydroxy-6-methyl-1,2,3,4-tetrahydroisoquinoline], for which the IC50 with PANC-1 (pancreas) (setting [1]) was determined as 0.4 µM; in the assay with HCT116 (colon) (setting [2]), 0.47 µM; with Caki-1 (kidney) (setting [3]), 0.36 µM; in the assay with MDA-MB-231 (breast) (setting [4]), 0.38 µM.
Consider `COc1ccc2c(c1O)CCN(C(=O)c1nc(-c3ccc(C)cc3)nc3ccccc13)C2` [Compound 12, 2-[[2-(4-methylphenyl)quinazolin-4-yl]carbonyl]-5-hydroxy-6-methoxy-1,2,3,4-tetrahydroisoquinoline], for which the half-maximal inhibitory concentration (IC50) in the assay with PANC-1 (pancreas) (setting [1]) came to 0.18 µM; in the assay with HCT116 (colon) (setting [2]), 0.29 µM; in the assay on Caki-1 (kidney) (setting [3]), 0.2 µM; with MDA-MB-231 (breast) (setting [4]), 0.23 µM.
The matching figures for `Cc1ccc(-c2nc(C(=O)N3CCc4c(ccc(C)c4O)C3)c3ccccc3n2)cc1` [Compound 16, 2-[[2-(4-methylphenyl)quinazolin-4-yl]carbonyl]-5-hydroxy-6-methyl-1,2,3,4-tetrahydroisoquinoline]: 1.72 µM, 2.05 µM, 1.61 µM and 1.5 µM.
In the case of `COc1ccc2c(c1OC)CCN(C(=O)c1nc(-c3ccccc3)nc3ccccc13)C2` [Compound 19, 2-[[2-phenylquinazolin-4-yl]carbonyl]-5,6-dimethoxy-1,2,3,4-tetrahydroisoquinoline], the IC50 is 1.06 µM with PANC-1 (pancreas) (setting [1]), 1.08 µM with HCT116 (colon) (setting [2]), 0.85 µM in the assay with Caki-1 (kidney) (setting [3]) and 0.84 µM in the assay on MDA-MB-231 (breast) (setting [4]).
Turning to `Cc1ccc2c(c1O)CCN(C(=O)c1nc(-c3ccccc3)nc3ccccc13)C2` [Compound 21, 2-[[2-phenylquinazolin-4-yl]carbonyl]-5-hydroxy-6-methyl-1,2,3,4-tetrahydroisoquinoline], the half-inhibitory concentration (IC50) in the assay on PANC-1 (pancreas) (setting [1]) was 0.22 µM; in the assay with HCT116 (colon) (setting [2]) it was 0.34 µM; in the assay with Caki-1 (kidney) (setting [3]), 0.23 µM; in the assay on MDA-MB-231 (breast) (setting [4]), 0.27 µM.
As for `COc1ccc(-c2nc(C(=O)N3CCc4c(ccc(OC)c4OC)C3)c3ccccc3n2)cc1` [Compound 24, 2-[[2-(4-methoxylphenyl)quinazolin-4-yl]carbonyl]-5,6-dimethoxy-1,2,3,4-tetrahydroisoquinoline], the half-maximal inhibitory concentration (IC50) came out at 0.46 µM with PANC-1 (pancreas) (setting [1]), 0.49 µM in the assay on HCT116 (colon) (setting [2]), 0.38 µM in the assay on Caki-1 (kidney) (setting [3]) and 0.41 µM in the assay on MDA-MB-231 (breast) (setting [4]).
On to `COc1ccc(-c2nc(C(=O)N3CCc4c(ccc(N(C)C)c4O)C3)c3ccccc3n2)cc1` [Compound 25, 2-[[2-(4-methoxylphenyl)quinazolin-4-yl]carbonyl]-5-hydroxy-6-dimethylamino-1,2,3,4-tetrahydroisoquinoline], for which the values for the IC50 in the assay on PANC-1 (pancreas) (setting [1]) and with MDA-MB-231 (breast) (setting [4]) were 1.77 µM and 2.53 µM, respectively.
`COc1ccc(-c2nc(C(=O)N3CCc4c(ccc(C)c4O)C3)c3ccccc3n2)cc1` [Compound 26, 2-[[2-(4-methoxylphenyl)quinazolin-4-yl]carbonyl]-5-hydroxy-6-methyl-1,2,3,4-tetrahydroisoquinoline]: the IC50 is 0.18 µM with PANC-1 (pancreas) (setting [1]), 0.22 µM in the assay with HCT116 (colon) (setting [2]), 0.16 µM with Caki-1 (kidney) (setting [3]) and 0.19 µM with MDA-MB-231 (breast) (setting [4]).
The corresponding values for `COc1ccc2c(c1O)CCN(C(=O)c1nc(-c3ccc(Cl)cc3)nc3ccccc13)C2` [Compound 27, 2-[[2-(4-chlorophenyl)quinazolin-4-yl]carbonyl]-5-hydroxy-6-methoxy-1,2,3,4-tetrahydroisoquinoline] are 0.42 µM, 0.5 µM, 0.46 µM and 0.54 µM.
`Cc1ccc2c(c1O)CCN(C(=O)c1nc(-c3ccc(Cl)cc3)nc3ccccc13)C2` [Compound 31, 2-[[2-(4-chlorophenyl)quinazolin-4-yl]carbonyl]-5-hydroxy-6-methyl-1,2,3,4-tetrahydroisoquinoline]: the IC50 in the assay with PANC-1 (pancreas) (setting [1]) was determined as 0.85 µM; with HCT116 (colon) (setting [2]), 0.91 µM; in the assay on Caki-1 (kidney) (setting [3]), 0.64 µM; in the assay with MDA-MB-231 (breast) (setting [4]), 0.63 µM.
Consider `COc1ccc2c(c1O)CCN(C(=O)c1nc(-c3ccc(N(C)C)cc3)nc3ccccc13)C2` [Compound 32, 2-[[2-(4-(dimethylamino)phenyl)quinazolin-4-yl]carbonyl]-5-hydroxy-6-methoxy-1,2,3,4-tetrahydroisoquinoline], for which the IC50 with PANC-1 (pancreas) (setting [1]) was found to be 0.47 µM; in the assay with HCT116 (colon) (setting [2]) it was 0.52 µM; with Caki-1 (kidney) (setting [3]), 0.37 µM; with MDA-MB-231 (breast) (setting [4]), 0.43 µM.
Turning to `COc1ccc2c(c1O)CCN(C(=O)c1nc(-c3ccc(C(F)(F)F)cc3)nc3ccccc13)C2` [Compound 37, 2-[[2-(4-(trifluoromethyl)phenyl)quinazolin-4-yl]carbonyl]-5-hydroxy-6-methoxy-1,2,3,4-tetrahydroisoquinoline], the half-maximal inhibitory concentration (IC50) with PANC-1 (pancreas) (setting [1]) was found to be 0.43 µM; in the assay on HCT116 (colon) (setting [2]) it was 0.55 µM; with Caki-1 (kidney) (setting [3]), 0.36 µM; with MDA-MB-231 (breast) (setting [4]), 0.42 µM.
As to `COc1cccc(-c2nc(C(=O)N3CCc4c(ccc(OC)c4O)C3)c3ccccc3n2)c1` [Compound 47, 2-[[2-(3-methoxylphenyl)quinazolin-4-yl]carbonyl]-5-hydroxy-6-methoxy-1,2,3,4-tetrahydroisoquinoline], the 50% inhibitory concentration (IC50) in the assay with PANC-1 (pancreas) (setting [1]) amounted to 0.5 µM; in the assay on HCT116 (colon) (setting [2]), 0.81 µM; in the assay on Caki-1 (kidney) (setting [3]), 0.59 µM; in the assay with MDA-MB-231 (breast) (setting [4]) it was 0.49 µM.
For `COc1ccc2c(c1OC)CCN(C(=O)c1nc(-c3cccc(C(F)(F)F)c3)nc3ccccc13)C2` [Compound 54, 2-[[2-(3-(trifluoromethyl)phenyl)quinazolin-4-yl]carbonyl]-5,6-dimethoxy-1,2,3,4-tetrahydroisoquinoline], the 50% inhibitory concentration (IC50) in the assay with HCT116 (colon) (setting [2]) came out at 1.65 µM; in the assay with MDA-MB-231 (breast) (setting [4]), 3.44 µM.
As for `COc1ccc2c(c1O)CCN(C(=O)c1nc(-c3ccc([N+](=O)[O-])cc3)nc3ccccc13)C2` [Compound 95, 2-[[2-(4-nitrophenyl)quinazolin-4-yl]carbonyl]-5-hydroxy-6-methoxy-1,2,3,4-tetrahydroisoquinoline], the IC50 in the assay with PANC-1 (pancreas) (setting [1]) was 0.2 µM; in the assay on HCT116 (colon) (setting [2]) it was 0.16 µM; in the assay with MDA-MB-231 (breast) (setting [4]), 0.11 µM.
For the compound `COc1ccc2c(c1O)CCN(C(=O)c1nc(-c3ccc(N)cc3)nc3ccccc13)C2` [Compound 96, 2-[[2-(4-aminophenyl)quinazolin-4-yl]carbonyl]-5-hydroxy-6-methoxy-1,2,3,4-tetrahydroisoquinoline], the IC50 in the assay on PANC-1 (pancreas) (setting [1]) was found to be 0.28 µM; with HCT116 (colon) (setting [2]), 0.36 µM; with MDA-MB-231 (breast) (setting [4]), 0.23 µM.
